From patent EP0138358A1, “The preparation and use of 2-[2-(1,4-benzodioxanyl)]-2-imidazoline in therapy” (Farmos-Yhtyma Oy, priority 1983, dated 1985)

Legend:
Format in all cases: in vivo
[1] = test system: rats; experiment: Sedative effect (loss of the righting reflex) in rats; conditions: 10 rats; dose of 0.5 mg/kg
Description: (§1) (C) The following tests concerning the sedative effect of 4-(2,6-dimethylbenzyl)imidazole and the inhibition of this effect with compound (I) were carried out in rats.
A dose of 0.5 mg/kg of 4-(2,6-dimethylbenzyl) imidazole was injected into 10 rats. This dose induced loss of the righting reflex for 1 h.

[2] = test system: Calves (8) and Cows (7); experiment: Awakening from detomidine-induced sedation, calves and cows; conditions: detomidine 0.04-0.06 mg/kg i.m., compound (I) i.v. after 30 min, same dose as detomidine
Description: (§2) Trials were carried out as follows: • (A) A dose of 0.04-0.06 mg/kg of detomidine was injected i.m. into the test animals. After exactly 30 min. compound (I) was given intravenously. The awakening of the animal or its recovery from the sedation was then observed. Calves (8) and Cows (7) recovered from detomidine-induced sedation in 2 to 5 minutes from the injection of compound (I). Horses (4) awoke in 5 to 10 min. The awakening effect of compound (I) was found stable for both species. […] For the calves and cows, the dose of compound (I) was the same as the dose of detomidine. For the horses, the dose of compound (I) was five times greater than that of detomidine. • (B) A dose of 2 mg/kg of xylazine was injected i.m. into 10 dogs. This injection induced sedation which lasted for 0.5 - 1 hr. During this time the dogs were able to walk only with difficulty.

[3] = test system: Horses (4); experiment: Awakening from detomidine-induced sedation, horses; conditions: detomidine 0.04-0.06 mg/kg i.m., compound (I) i.v. after 30 min, dose five times greater than that of detomidine
Description: as §2

[4] = test system: dogs; experiment: Awakening from xylazine-induced sedation in dogs; conditions: compound (I) 0.1 - 0.3 mg/kg i.v. 20 min. after 2 mg/kg of xylazine
Description: In other experiments compound (I) was given at a dose of 0.1 - 0.3 mg/kg i.v. 20 min. after the injection of 2 mg/kg of xylazine. The awakening of the dogs and their recovery from the sedation was observed. The dogs recovered from the xylazine-induced sedation in 2 - 3 minutes after the administration of compound (I).

[5] = test system: rats; experiment: Inhibition of the sedative effect of 4-(2,6-dimethylbenzyl)imidazole in rats (spontaneous locomotor activity, activity meter); conditions: compound (I) 1-3 mg/kg i.v. or i.p., 15 minutes after 4-(2,6-dimethylbenzyl)imidazole
Description: as §1
In other tests, compound (I) was given i.v. or i.p. to rats at a dose of 1-3 mg/kg, 15 minutes after the administration of 4-(2,6-dimethylbenzyl)imidazole. The recovery of the animals from the sedation was observed by measuring their spontaneous locomotor activity with an activity meter.

[6] = test system: horses and cattle; experiment: Sedative and analgesic effect of detomidine in horses and cattle; conditions: i.m. or i.v.
Description: This invention relates to the preparation of 2-[2-(1,4-benzodioxanyl)]-2-imidazoline, and to its use. Detomidine, which has the formula [drawing 1] is a known compound with sedative and analgesic effect in animals. The potency and the duration of the effect can be regulated by the dosage. The compound is very potent; dosages as small as […] given by injection provide a clinical response. Detomidine is used in veterinary medicine especially in the handling of horses and cattle (pharmacological restraint). The animal is sedated before investigation, treatment and difficult medical operations. Even small surgical operations cannot be carried out without the use of a sedative agent.
The analgesic effect is dose dependent. […] Table 1: The effect of detomidine in horses and cattle. Dosage i.m. or i.v.

For `Cc1cccc(C)c1Cc1c[nH]cn1` [4-(2,6-dimethylbenzyl) imidazole, 4-(2,6-dimethylbenzyl)imidazole], the “duration of loss of the righting reflex” value [1] was 1 h.

With `c1ccc2c(c1)OCC(C1=NCCN1)O2` (stereo not drawn) [compound (I), 2-[2-(1,4-benzodioxanyl)]-imidazoline] the awakening effect [2] was “stable”, the side-effects [2] was “No side-effects were observed” and the awakening effect [3] was “stable”. The side-effects [3] was “No side-effects were observed”, the awakening effect [4] was “stable” and the side-effects [4] was “No side-effects were observed”. For the same compound, the “counteraction of the sedative effect of 4-(2,6-dimethylbenzyl)imidazole” value [5] was “fully counteract” and the “time to counteract the sedative effect of 4-(2,6-dimethylbenzyl)imidazole after the administration of compound (I)” value [5] was 1 to 5 min.

In the case of `Cc1cccc(Cc2c[nH]cn2)c1C` [detomidine, Detomidine], the “Delay before the effect begins” value ([6]; dose 20-40 µg/kg) is reported as 3 to 5 min, the Effect ([6]; dose 20-40 µg/kg) is reported as “easy to handle; short effect” and the Other effects ([6]; dose 20-40 µg/kg) is reported as “slight stagger-ing”. For the same compound, the “Delay before the effect begins” value ([6]; dose 40-80 µg/kg) was 2 to 5 min, the Effect ([6]; dose 40-80 µg/kg) was “strong effect” and the Other effects ([6]; dose 40-80 µg/kg) was “stagger-ing, sweating pilo-erection, muscular tremor”. For the same compound, the “Delay before the effect begins” value ([6]; dose 80-150 µg/kg) was 1 to 5 min, the “Duration of the effect” value ([6]; dose 80-150 µg/kg) was 2 to 6 h and the Other effects ([6]; dose 80-150 µg/kg) was “Strong stagger-ing, pilo-erection, sweating, diuresis”.
